In ChEMBL document CHEMBL1129000, “Inhibitors of acyl-CoA: cholesterol O-acyl transferase (ACAT) as hypocholesterolemic agents. The synthesis and biological activity of a series of malonester amides” (Bioorg Med Chem Lett, 1996) one finds IC50 and Change data, which are given here for 17 compounds.

O-acyltransferase, sequence (G1SFD9 1-524): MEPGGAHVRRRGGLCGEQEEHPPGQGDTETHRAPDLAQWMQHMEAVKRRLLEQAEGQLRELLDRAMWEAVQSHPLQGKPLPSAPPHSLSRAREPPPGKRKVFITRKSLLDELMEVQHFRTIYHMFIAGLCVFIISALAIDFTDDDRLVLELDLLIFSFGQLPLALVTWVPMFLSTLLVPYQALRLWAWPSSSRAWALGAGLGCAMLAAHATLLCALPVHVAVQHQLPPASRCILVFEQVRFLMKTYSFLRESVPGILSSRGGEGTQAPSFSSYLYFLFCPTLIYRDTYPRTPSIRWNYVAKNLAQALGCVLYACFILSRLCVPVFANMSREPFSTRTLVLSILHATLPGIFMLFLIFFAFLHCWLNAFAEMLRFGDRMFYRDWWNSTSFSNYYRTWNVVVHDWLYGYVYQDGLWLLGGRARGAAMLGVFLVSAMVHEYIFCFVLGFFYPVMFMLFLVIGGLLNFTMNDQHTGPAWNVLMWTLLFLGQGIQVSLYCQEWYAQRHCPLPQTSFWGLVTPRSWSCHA

One test concerns the target O-acyltransferase (Oryctolagus cuniculus, UniProt G1SFD9). As to the kind of experiment: In vitro inhibitory activity against Acyl coenzyme A:cholesterol acyltransferase in intestinal microsomes isolated from cholesterol fed rabbits (IAI). On the set-up: species or system Intestine.
What is called IC50 is the concentration at which inhibition is half-maximal. A higher IC50 goes with weaker potency. `CC(C)c1cccc(C(C)C)c1OC(=O)CC(=O)Nc1ccccc1` returned an IC50 above 5 µM. Still for that read-out and setting: as for `CC(C)c1cccc(C(C)C)c1NC(=O)CC(=O)Oc1c(-c2ccccc2)cccc1-c1ccccc1`, the figure is 0.067 µM. For `CCCCCCCCC(C)OC(=O)CC(=O)Nc1c(C(C)C)cccc1C(C)C` (stereo not given), 0.012 µM corresponded to half-maximal inhibition (IC50). Consider `CCCCCCCCCCCCCCCCCCOC(=O)CC(=O)Nc1c(C(C)C)cccc1C(C)C`, for which the IC50 is 0.053 µM. Same read-out and setting: as for `CCCCCCCCCCCC[C@H](C)OC(=O)CC(=O)Nc1c(C(C)C)cccc1C(C)C`, the figure is 0.004 µM. Still for that read-out and setting: as for `CC(C)c1cccc(C(C)C)c1NC(=O)CC(=O)OC(c1ccccn1)c1ccccn1`, the figure is above 5 µM; as for `Cc1cccc(C)c1NC(=O)CC(=O)Oc1c(C(C)C)cccc1C(C)C`, 0.21 µM. Still for that read-out and setting: as for `CCCCCC(C)OC(=O)CC(=O)Nc1c(C(C)C)cccc1C(C)C` (stereo not given), the figure is 0.027 µM; as for `COc1cc(OC)c(NC(=O)CC(=O)Oc2c(C(C)C)cccc2C(C)C)c(OC)c1`, 1 µM.

For `CCCCCCCCCCCC[C@@H](C)OC(=O)CC(=O)Nc1c(C(C)C)cccc1C(C)C`, the midpoint of inhibition, the IC50, lay at 0.004 µM.

The compound `CC(C)c1cccc(C(C)C)c1NC(=O)CC(=O)O` registered an IC50 above 5 µM. Compound `CCCCCCCCCCOC(=O)CC(=O)Nc1c(C(C)C)cccc1C(C)C` yielded an IC50 of 0.053 µM.

As to `CC(C)c1cccc(C(C)C)c1NC(=O)CC(=O)OC(c1ccccc1)c1ccccn1` (stereo not given), the IC50 was above 5 µM. The same measure, in the same setting: to `CCOC(=O)CC(=O)Nc1c(C(C)C)cccc1C(C)C` belongs 1.8 µM; to `COc1cc(OC)c(OC(=O)CC(=O)Nc2c(C(C)C)cccc2C(C)C)c(OC)c1`, 0.32 µM. Still for that read-out and setting: as for `CCCCCCOC(=O)CC(=O)Nc1c(C(C)C)cccc1C(C)C`, the figure is 0.81 µM. On to `CC(C)c1cccc(C(C)C)c1OC(=O)CC(=O)Nc1c(F)cc(F)cc1F`, for which the IC50 was above 5 µM.

The next test has as its system Rattus norvegicus. Briefly: In vivo percent change in the total cholesterol after consumption of a single high fat, high cholesterol meal by rats. The test is classed as functional.
Take `CC(C)c1cccc(C(C)C)c1NC(=O)CC(=O)Oc1c(-c2ccccc2)cccc1-c1ccccc1`: the Change is given as -41%. With `CCCCCCCCC(C)OC(=O)CC(=O)Nc1c(C(C)C)cccc1C(C)C` (stereo not given), the Change is on record as -61%. Take `CCCCCCCCCCCCCCCCCCOC(=O)CC(=O)Nc1c(C(C)C)cccc1C(C)C`: the Change is on record as -16%. On to `CCCCCCCCCCCC[C@H](C)OC(=O)CC(=O)Nc1c(C(C)C)cccc1C(C)C`, for which the Change is given as -66%.

Consider `CC(C)c1cccc(C(C)C)c1NC(=O)CC(=O)OC(c1ccccn1)c1ccccn1`, for which the Change is listed as -55%.

For the compound `Cc1cccc(C)c1NC(=O)CC(=O)Oc1c(C(C)C)cccc1C(C)C`, the Change worked out at 5%. Turning to `CCCCCC(C)OC(=O)CC(=O)Nc1c(C(C)C)cccc1C(C)C` (stereo not given), the Change is -46%. The same measure, in the same setting: to `COc1cc(OC)c(NC(=O)CC(=O)Oc2c(C(C)C)cccc2C(C)C)c(OC)c1` belongs -29%; to `CCCCCCCCCCCC[C@@H](C)OC(=O)CC(=O)Nc1c(C(C)C)cccc1C(C)C`, -67%; to `CCCCCCCCCCOC(=O)CC(=O)Nc1c(C(C)C)cccc1C(C)C`, -37%. Turning to `COc1cc(OC)c(OC(=O)CC(=O)Nc2c(C(C)C)cccc2C(C)C)c(OC)c1`, the Change is -9%. Same read-out and setting: to `CCCCCCOC(=O)CC(=O)Nc1c(C(C)C)cccc1C(C)C` belongs -29%; to `CC(C)c1cccc(C(C)C)c1OC(=O)CC(=O)Nc1c(F)cc(F)cc1F`, -9%.
